Results: ChEMBL document CHEMBL3390836, “Mannich- and LedererManasse-based analogues of the natural product S-(+)-curcuphenol as cancer proliferation and migration inhibitors” (Medchemcomm, 2012)

Assays:
Assay type in all cases: functional
NCI-H23 = assay: Cytotoxicity against human NCI-H23 cells assessed as cell growth at 10^-4 M after 48 hrs by SRB assay relative to control; settings: NCI-H23, 48 h, read-out: Activity
NCI-H460 [1] = assay: Cytotoxicity against human NCI-H460 cells assessed as cell growth at 10^-4 M after 48 hrs by SRB assay relative to control; settings: NCI-H460, 48 h, read-out: Activity
KM12 = assay: Cytotoxicity against human KM12 cells assessed as cell growth at 10^-4 M after 48 hrs by SRB assay relative to control; settings: KM12, 48 h, read-out: Activity
SF-268 [2] = assay: Cytotoxicity against human SF268 cells assessed as cell growth at 10^-4 M after 48 hrs by SRB assay relative to control; settings: SF-268, 48 h, read-out: Activity
SNB-75 = assay: Cytotoxicity against human SNB75 cells after 48 hrs by SRB assay; settings: SNB-75, 48 h
U-251 = assay: Cytotoxicity against human U251 cells after 48 hrs by SRB assay; settings: U-251, 48 h
SK-MEL-28 = assay: Cytotoxicity against human SK-MEL-28 cells after 48 hrs by SRB assay; settings: SK-MEL-28, 48 h; for CC50: read-out: LC50 (the source's name)
[3] = Cytotoxicity against human NCI-ADR-RES cells after 48 hrs by SRB assay
A498 [4] = assay: Cytotoxicity against human A498 cells after 48 hrs by SRB assay; settings: A498, 48 h; for CC50: read-out: LC50 (the source's name)
RXF 393 [5] = assay: Cytotoxicity against human RXF393 cells after 48 hrs by SRB assay; settings: RXF 393, 48 h
SNB-19 = assay: Cytotoxicity against human SNB19 cells assessed as cell growth at 10^-4 M after 48 hrs by SRB assay relative to control; settings: SNB-19, 48 h, read-out: Activity
SF-539 = assay: Cytotoxicity against human SF539 cells assessed as cell growth at 10^-8 M after 48 hrs by SRB assay relative to control; settings: SF-539, 48 h, read-out: Activity
786-0 = assay: Cytotoxicity against human 786-0 cells assessed as cell growth at 10^-4 M after 48 hrs by SRB assay relative to control; settings: 786-0, 48 h, read-out: Activity
RXF 393 [6] = assay: Cytotoxicity against human RXF393 cells assessed as cell growth at 10^-4 M after 48 hrs by SRB assay relative to control; settings: RXF 393, 48 h, read-out: Activity
[7] = Cytotoxicity against human PC3 cells assessed as cell growth at 10^-4 M after 48 hrs by SRB assay relative to control; settings: PC-3, 48 h, read-out: Activity
[8] = Cytotoxicity against human UACC62 cells assessed as cell growth at 10^-8 M after 48 hrs by SRB assay relative to control; settings: UACC-62, 48 h, read-out: Activity
[9] = Cytotoxicity against human OVCAR5 cells assessed as cell growth at 10^-8 M after 48 hrs by SRB assay relative to control; settings: OVCAR-5, 48 h, read-out: Activity
A498 [10] = assay: Cytotoxicity against human A498 cells assessed as cell growth at 10^-8 M after 48 hrs by SRB assay relative to control; settings: A498, 48 h, read-out: Activity
MDA-MB-231 [11] = assay: Cytotoxicity against human MDA-MB-231 cells assessed as cell growth at 10^-8 M after 48 hrs by SRB assay relative to control; settings: MDA-MB-231, 48 h, read-out: Activity
K562 = assay: Cytotoxicity against human K562 cells assessed as cell growth at 10^-7 M after 48 hrs by SRB assay relative to control; settings: K562, 48 h, read-out: Activity
HOP-62 = assay: Cytotoxicity against human HOP62 cells assessed as cell growth at 10^-7 M after 48 hrs by SRB assay relative to control; settings: HOP-62, 48 h, read-out: Activity
NCI-H460 [12] = assay: Cytotoxicity against human NCI-H460 cells assessed as cell growth at 10^-7 M after 48 hrs by SRB assay relative to control; settings: NCI-H460, 48 h, read-out: Activity
MOLT-4 [13] = assay: Cytotoxicity against human MOLT4 cells after 48 hrs by SRB assay; settings: MOLT-4, 48 h
NCI-H226 = assay: Cytotoxicity against human NCI-H226 cells after 48 hrs by SRB assay; settings: NCI-H226, 48 h
NCI-H460 [14] = assay: Cytotoxicity against human NCI-H460 cells after 48 hrs by SRB assay; settings: NCI-H460, 48 h; for CC50: read-out: LC50 (the source's name)
[15] = Cytotoxicity against human OVCAR5 cells assessed as cell growth at 10^-7 M after 48 hrs by SRB assay relative to control; settings: OVCAR-5, 48 h, read-out: Activity
[16] = Cytotoxicity against human NCI-ADR-RES cells assessed as cell growth at 10^-7 M after 48 hrs by SRB assay relative to control; settings: read-out: Activity
CAKI-1 = assay: Cytotoxicity against human Caki1 cells assessed as cell growth at 10^-7 M after 48 hrs by SRB assay relative to control; settings: CAKI-1, 48 h, read-out: Activity
MOLT-4 [17] = assay: Cytotoxicity against human MOLT4 cells assessed as cell growth at 10^-6 M after 48 hrs by SRB assay relative to control; settings: MOLT-4, 48 h, read-out: Activity
HT-29 = assay: Cytotoxicity against human HT-29 cells assessed as cell growth at 10^-6 M after 48 hrs by SRB assay relative to control; settings: HT-29, 48 h, read-out: Activity
SF-268 [18] = assay: Cytotoxicity against human SF268 cells assessed as cell growth at 10^-6 M after 48 hrs by SRB assay relative to control; settings: SF-268, 48 h, read-out: Activity
Malme-3M = assay: Cytotoxicity against human MALME-3M cells assessed as cell growth at 10^-6 M after 48 hrs by SRB assay relative to control; settings: read-out: Activity
MDA-MB-435 = assay: Cytotoxicity against human MDA-MB-435 cells assessed as cell growth at 10^-6 M after 48 hrs by SRB assay relative to control; settings: MDA-MB-435, 48 h, read-out: Activity
[19] = Cytotoxicity against human OVCAR5 cells assessed as cell growth at 10^-6 M after 48 hrs by SRB assay relative to control; settings: OVCAR-5, 48 h, read-out: Activity
MDA-MB-231 [20] = assay: Cytotoxicity against human MDA-MB-231 cells assessed as cell growth at 10^-6 M after 48 hrs by SRB assay relative to control; settings: MDA-MB-231, 48 h, read-out: Activity
[21] = Cytotoxicity against human Hs 578T cells assessed as cell growth at 10^-6 M after 48 hrs by SRB assay relative to control; settings: read-out: Activity

SMILES: COc1ccc(CCN2COc3c([C@@H](C)CCC=C(C)C)ccc(C)c3C2)cc1OC
- growth at 100 µM (NCI-H23): -92%
- growth at 100 µM (NCI-H460 [1]): -92%
- growth at 100 µM (KM12): -75%
- growth at 100 µM (SF-268 [2]): -88%
- GI50 (SNB-75): 12.5 µM
- LC50 (SNB-75): > 100 µM
- TGI (SNB-75): 35.4 µM
- GI50 (U-251): 1.91 µM
- LC50 (U-251): 11.2 µM
- TGI (U-251): 4.47 µM
- GI50 (SK-MEL-28): 2.21 µM
- TGI (SK-MEL-28): 4.94 µM
- CC50 (SK-MEL-28): 13.3 µM
- GI50 [3]: 2.96 µM
- LC50 (lethal concentration, 50% cell kill) [3]: 35.2 µM
- TGI [3]: 9.51 µM
- GI50 (A498 [4]): 1.96 µM
- TGI (A498 [4]): 11.9 µM
- CC50 (A498 [4]): 37.1 µM
- GI50 (RXF 393 [5]): 1.73 µM
- LC50 (concentration killing 50% of cells) (RXF 393 [5]): 18.2 µM
- TGI (RXF 393 [5]): 4.85 µM
- growth at 100 µM (SNB-19): -33%
- growth at 0.01 µM (SF-539): 95%
- growth at 100 µM (786-0): -100%
- growth at 100 µM (RXF 393 [6]): -92%
- growth at 100 µM [7]: -61%
- growth at 0.01 µM [8]: 95%
- growth at 0.01 µM [9]: 92%
- growth at 0.01 µM (A498 [10]): 67%
- growth at 0.01 µM (MDA-MB-231 [11]): 100%
- growth at 0.1 µM (K562): 95%
- growth at 0.1 µM (HOP-62): 96%
- growth at 0.1 µM (NCI-H460 [12]): 100%
- GI50 (MOLT-4 [13]): 3.69 µM
- LC50 (MOLT-4 [13]): > 100 µM
- TGI (MOLT-4 [13]): > 100 µM
- GI50 (NCI-H226): 8.64 µM
- LC50 (NCI-H226): 49.1 µM
- TGI (NCI-H226): 21.6 µM
- GI50 (NCI-H460 [14]): 2.06 µM
- TGI (NCI-H460 [14]): 4.3 µM
- CC50 (NCI-H460 [14]): 8.95 µM
- growth at 0.1 µM [15]: 98%
- growth at 0.1 µM [16]: 99%
- growth at 0.1 µM (CAKI-1): 91%
- growth at 1 µM (MOLT-4 [17]): 85%
- growth at 1 µM (HT-29): 91%
- growth at 1 µM (SF-268 [18]): 67%
- growth at 1 µM (Malme-3M): 79%
- growth at 1 µM (MDA-MB-435): 96%
- growth at 1 µM [19]: 97%
- growth at 1 µM (MDA-MB-231 [20]): 91%
- growth at 1 µM [21]: 93%

SMILES: CC(C)=CCC[C@H](C)c1ccc(C)c(CNCC2CCNCC2)c1O
- growth at 100 µM (NCI-H23): 54%
- growth at 100 µM (NCI-H460 [1]): -68%
- growth at 100 µM (KM12): -77%
- growth at 100 µM (SF-268 [2]): 14%
- GI50 (SNB-75): 3.89 µM
- LC50 (SNB-75): > 25 µM
- TGI (SNB-75): 12.3 µM
- GI50 (U-251): 3.72 µM
- LC50 (U-251): 15.9 µM
- TGI (U-251): 7.69 µM
- GI50 (SK-MEL-28): 4.2 µM
- TGI (SK-MEL-28): 7.89 µM
- CC50 (SK-MEL-28): 14.8 µM
- GI50 [3]: 19.8 µM
- LC50 (lethal concentration, 50% cell kill) [3]: > 25 µM
- TGI [3]: > 25 µM
- GI50 (A498 [4]): 12.1 µM
- TGI (A498 [4]): > 25 µM
- CC50 (A498 [4]): > 25 µM
- GI50 (RXF 393 [5]): 3.7 µM
- LC50 (concentration killing 50% of cells) (RXF 393 [5]): > 25 µM
- TGI (RXF 393 [5]): 13.4 µM
- growth at 100 µM (SNB-19): 21%
- growth at 0.01 µM (SF-539): 96%
- growth at 100 µM (786-0): -47%
- growth at 100 µM (RXF 393 [6]): -24%
- growth at 100 µM [7]: 6%
- growth at 0.01 µM [8]: 97%
- growth at 0.01 µM [9]: 96%
- growth at 0.01 µM (A498 [10]): 80%
- growth at 0.01 µM (MDA-MB-231 [11]): 105%
- growth at 0.1 µM (K562): 99%
- growth at 0.1 µM (HOP-62): 95%
- growth at 0.1 µM (NCI-H460 [12]): 98%
- LC50 (MOLT-4 [13]): > 25 µM
- GI50 (NCI-H226): 10.4 µM
- LC50 (NCI-H226): > 25 µM
- TGI (NCI-H226): > 25 µM
- GI50 (NCI-H460 [14]): 4.45 µM
- TGI (NCI-H460 [14]): 9.23 µM
- CC50 (NCI-H460 [14]): 19.1 µM
- growth at 0.1 µM [15]: 96%
- growth at 0.1 µM [16]: 100%
- growth at 0.1 µM (CAKI-1): 94%
- growth at 1 µM (MOLT-4 [17]): 99%
- growth at 1 µM (HT-29): 113%
- growth at 1 µM (SF-268 [18]): 92%
- growth at 1 µM (Malme-3M): 84%
- growth at 1 µM (MDA-MB-435): 92%
- growth at 1 µM [19]: 90%
- growth at 1 µM (MDA-MB-231 [20]): 104%
- growth at 1 µM [21]: 97%
